Measured values published in patent publication US20260085340A1, “METHOD FOR SINGLE CELL ANTIMICROBIAL SUSCEPTIBILITY TESTING IN A SUB-DOUBLING TIME” (The Penn State Research Foundation, priority 2022, published 2026).
≈ marks a conversion by molar mass, not a printed value. Entries after “also recorded” stand apart in the source; their conditions may differ. Like-named read-outs stand apart in the source and are kept apart here.

How the values were obtained:
Klebsiella pneumoniae = assay: Time-lapse single cell imaging of K. pneumoniae treated with meropenem (cell division, morphology); format: cell-based; conditions: for bulging or protrusion around the center of the cell: 5 μg/mL meropenem, early time points
Protocol: Klebsiella pneumoniae isolates (listed in Table 1 below) from the CDC & FDA Antimicrobial Resistance (AR) bank and American Type Culture Collective (ATCC) were grown in Mueller Hinton Broth (MHB) at 37° C. overnight. The next day, cells were sub-cultured in fresh MHB media for three hours (growth phase) to a density equivalent to OD600=0.5. Bacteria cells (10 μL) were treated with 10 μL meropenem at varying final concentrations of 0, 0.05, 0.5, 5, and 50 μg/mL to ascertain the physiological responses of cells. A subset of these isolates was treated with finer range of antimicrobial concentrations (0.02, 0.04, 0.016, 0.032, 0.064, 0.125, 0.5, 1, 2 μg/mL) to train the algorithm for quantitative prediction of MIC. The MICs of the isolates were obtained from the CDC and independently confirmed using the broth microdilution method according to the CDC guideline.
Bacteria cells and meropenem in liquid media are briefly vortexed prior to mounting on 1% (v/v) UltraPure agarose pad (10×20 mm, Invitrogen) on a microslide covered with a glass coverslip (#1.5, 22×30 mm). Bacteria imaging was performed using a Nikon Ti2-E inverted microscope equipped with a DS-Qi2 CMOS camera and an Okolab stage-top temperature control chamber (37° C., 5% CO2). Images were acquired using a Nikon CFI Plan Apochromat 1 DM 100× oil objective lens and an external Phase Contrast (Ph3) module. Each isolate was observed over a period of 75 minutes (15-90 minutes after mixing with the antimicrobial).
Time-series images were stacked and corrected for shifts in the time series using the Template Matching and Slice Alignment ImageJ plugin. Each individual stack was then analyzed using the MicrobeJ plugin for ImageJ. The plugin, designed for the detection and analysis of bacterial cells, uses computer vision algorithms to automatically identify a cell and determine a suite of morphological features, such as its area, length, circularity, and perimeter (see Table 2 below). The tracking data were summarized as a table and exported as a comma-separated values (.csv) file for further analysis.
(§1) We developed a non-limiting example machine learning workflow for rapid AST in a sub-doubling time of the bacteria. The MorphoAST workflow started with imaging of individual bacteria under various antimicrobial concentrations (FIG. 1A). Cells were grown to log phase and treated with varying concentrations of meropenem. Cells without any antimicrobials were imaged in the same manner as controls for the experiment. Live bacteria were mounted on an agarose pad to minimize cell movement due to cell motility and Brownian motion. Time-lapse images were taken every 5 minutes. Images were aligned to match the location of individual cells at each frame and then subject to MicrobeJ analysis for extracting morphological features. A total of 21 parameters (Table 2) describing the cellular dimension and orientation were generated. The data were analyzed either fitting with an exponential function to extract the feature changing rates (FIG. 1B) or normalized against the untreated control to extract the feature differentials (FIG. 1C). The data were applied to train and validate machine learning classifiers to predict the antimicrobial response (FIG. 1D) and regressors to predict the MIC of the bacterial strain against the antimicrobial (FIG. 1E).

[1] = system: clinical samples of KP (VA_1 and VA_2); assay: Experimental MIC of clinical samples of KP from patients with urinary tract infections; format: cell-based, Klebsiella pneumoniae
Protocol: (§2) In addition to validation against unseen strains, the model was tested against imaging data from two clinical samples of KP obtained from patients visiting the VA (Palo Alto) with urinary tract infections (FIG. 9D-E). The experimental MICs for these clinical samples (VA_1 and VA_2) was 0.5 μg/mL, i.e., susceptible. […] When the incubation time was increased to 50 minutes, both strains were predicted to have a mode MIC of 1 μg/mL which accurately classifies both clinical isolates as susceptible with an MIC within one-two fold dilution from the experimental MIC resulting.

[2] = system: clinical samples of KP (VA_1 and VA_2); assay: MorphoAST MIC prediction with Random Forest regressor (concentration differential) from single cell imaging; format: cell-based, Klebsiella pneumoniae; conditions: for MIC: Klebsiella pneumoniae
Protocol: as §1
We further evaluated the use of the concentration differential data for MIC prediction. A Random Forest regressor was trained from a total of 39,135 cells across the concentrations. […] The Random Forest regressor predicted the MIC in the 5-fold cross-validated training dataset with an RMSE of 0.8, MAE of 0.2, and an R^2 of 0.93. The performance of the model was assessed against 5 unseen KP strains, which comprised 6,067 cells. The experimental MIC and predicted MIC of the 5 unseen strains based on the Random Forest regressor are compared in FIG. 9B. […] The predicted and experimentally reported MIC labels were also compared. Based on the predicted MIC for each strain, the model correctly predicted 100% (2/2) of the susceptible and intermediate (1/1) bacteria in as few as 30 minutes. The performance of the model increased with the antimicrobial exposure time and achieved 100% CA with 0% ME and 0% VME in 50 minutes. We then tested the model performance in predicting the MIC for individual cells within each population of the unseen strains tested (FIG. 9C). While there is heterogeneity in calls for individual cells from a single population, ˜79.9% of cells from 3/5 strains tested (KP 003, KP_139, and KP_U3) had predicted MICs within one-two fold dilution from the experimental MIC after 20 minutes of antimicrobial exposure. After 50 minutes of exposure, ˜85.1% of all cells from 5/5 tested strains had predicted MICs within one-two fold dilution from experimental MIC.
as §2

[3] = system: Klebsiella pneumoniae isolates; conditions: cited from earlier work

## C[C@@H](O)[C@H]1C(=O)N2C(C(=O)O)=C(S[C@@H]3CN[C@H](C(=O)N(C)C)C3)[C@H](C)[C@H]12 [Meropenem, meropenem]
Klebsiella pneumoniae; K. pneumoniae KP0142, 50 μg/ml meropenem versus 0 μg/ml
  Bulging of the cells: observed only in the meropenem case; also recorded: only observed in the meropenem case
Klebsiella pneumoniae; K. pneumoniae KP0142, 50 μg/ml meropenem, time-lapse imaging
  cell division: completely inhibited
Klebsiella pneumoniae; KP0016 (susceptible)
  bulging or protrusion around the center of the cell: noticeable ‘bulging’ or protrusion around the center of the cell
Klebsiella pneumoniae; KP0142 (intermediate)
  bulging or protrusion around the center of the cell: noticeable ‘bulging’ or protrusion around the center of the cell
Klebsiella pneumoniae; KP0143 (resistant)
  bulging or protrusion around the center of the cell: not observed
[1]; Klebsiella pneumoniae, clinical sample VA_1
  MIC: 0.5 µg/mL
[1]; clinical sample VA_1
  susceptibility category from experimental MIC: susceptible
[1]; clinical sample VA_2
  experimental MIC: 0.5 µg/mL
  susceptibility category from experimental MIC: susceptible
[2]; 20 min, clinical sample VA_1, within 20 minutes of meropenem treatment, read-out: predicted MIC
  MIC: 8 µg/mL (≈ 20.9 µM)
[2]; 20 min, clinical sample VA_2, within 20 minutes of meropenem treatment, read-out: predicted MIC
  MIC: 7 µg/mL (≈ 18.3 µM)
[2]; 50 min, clinical sample VA_1, 50 minutes incubation, read-out: predicted mode MIC
  MIC: 1 µg/mL (≈ 2.61 µM)
[2]; 50 min, clinical sample VA_2, 50 minutes incubation, read-out: predicted mode MIC
  MIC: 1 µg/mL (≈ 2.61 µM)
[2]; clinical sample VA_1, 50 minutes incubation
  predicted susceptibility category: susceptible
[2]; clinical sample VA_1, within 20 minutes of meropenem treatment
  predicted susceptibility category: resistant
[2]; clinical sample VA_2, 50 minutes incubation
  predicted susceptibility category: susceptible
[2]; clinical sample VA_2, within 20 minutes of meropenem treatment
  predicted susceptibility category: resistant
[3]; K. pneumoniae KP0142
  MIC of the strain: 2 µg/mL
[3]; KP strain AR Bank# 0010
  Meropenem MIC: 1 µg/mL
[3]; KP strain AR Bank# 0016
  Meropenem MIC: < 0.5 µg/mL
  Meropenem Susc.: Susceptible
[3]; KP strain AR Bank# 0028
  Meropenem MIC: < 0.5 µg/mL
[3]; KP strain AR Bank# 0120
  Meropenem MIC: > 8 µg/mL
[3]; KP strain AR Bank# 0140
  Meropenem MIC: 2 µg/mL
[3]; KP strain AR Bank# 0142
  Meropenem MIC: 2 µg/mL
  Meropenem Susc.: Intermediate
[3]; KP strain AR Bank# 0143
  Meropenem MIC: > 8 µg/mL
  Meropenem Susc.: Resistant
[3]; KP strain AR Bank# 0147
  Meropenem MIC: 0.5 µg/mL
[3]; KP strain AR Bank# 0153
  Meropenem MIC: > 8 µg/mL
[3]; KP strain AR Bank# 0160
  Meropenem MIC: > 8 µg/mL
[3]; KP strain ATCC 700603
  Meropenem MIC: ≤ 0.25 µg/mL
[3]; KP strain ATCC BAA-1705
  Meropenem MIC: > 8 µg/mL
